Data reported in the supplement of paper PMC10307832.

Tests used:
Assay in all cases: relative viability (nuclei count vs DMSO), 5 days (fraction); higher = more cells survive
Kobe2602 + Trametinib = compound: C1=CC(=CC=C1NC(=S)NNC2=C(C=C(C=C2[N+](=O)[O-])C(F)(F)F)[N+](=O)[O-])F [Kobe2602] + CC(=O)Nc1cccc(-n2c(=O)n(C3CC3)c(=O)c3c(Nc4ccc(I)cc4F)n(C)c(=O)c(C)c32)c1 [Trametinib] (partner 0.02 µM)
In short: (§1)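 Nuclei were stained with Hoechst during a one-step fixation (final 0.05% Triton X-100, 1% formaldehyde, 1 ug/ml Hoechst) carried out 5 days after dosing, then counted on 4× images. The cells, lung cancer lines in 1536-well plates, had been dosed by pin tool the day after seeding with one drug alone or a fixed anchor-drug dose plus five library-drug doses (not always all listed) in √10 steps. Relative viability is the nuclei count in treated wells divided by that in vehicle wells, and each value is the median of duplicate plates.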

Kobe2602 + OSI-027 = compound: C1=CC(=CC=C1NC(=S)NNC2=C(C=C(C=C2[N+](=O)[O-])C(F)(F)F)[N+](=O)[O-])F [Kobe2602] + COc1cccc2cc(-c3nc([C@H]4CC[C@H](C(=O)O)CC4)n4ncnc(N)c34)[nH]c12 [OSI-027] (partner 0.5 µM)
In short: as §1

Zosuquidar + Linsitinib = compound: O[C@@H](COc1cccc2ncccc12)CN1CCN([C@@H]2c3ccccc3[C@@H]3[C@H](c4ccccc42)C3(F)F)CC1 [Zosuquidar] + C[C@]1(O)C[C@@H](c2nc(-c3ccc4ccc(-c5ccccc5)nc4c3)c3c(N)nccn32)C1 [Linsitinib] (partner 1 µM)
In short: as §1

Zosuquidar + Tozasertib = compound: O[C@@H](COc1cccc2ncccc12)CN1CCN([C@@H]2c3ccccc3[C@@H]3[C@H](c4ccccc42)C3(F)F)CC1 [Zosuquidar] + Cc1cc(Nc2cc(N3CCN(C)CC3)nc(Sc3ccc(NC(=O)C4CC4)cc3)n2)n[nH]1 [Tozasertib] (partner 0.1 µM)
In short: as §1

Cell Line	relative viability (Kobe2602 + Trametinib; first compound 0.2 µM)	relative viability (Kobe2602 + Trametinib; first compound 0.6325 µM)	relative viability (Kobe2602 + Trametinib; first compound 2 µM)	relative viability (Kobe2602 + Trametinib; first compound 6.325 µM)	relative viability (Kobe2602 + Trametinib; first compound 20 µM)	relative viability (Kobe2602 + OSI-027; first compound 0.2 µM)	relative viability (Kobe2602 + OSI-027; first compound 0.6325 µM)	relative viability (Kobe2602 + OSI-027; first compound 2 µM)	relative viability (Kobe2602 + OSI-027; first compound 6.325 µM)	relative viability (Kobe2602 + OSI-027; first compound 20 µM)	relative viability (Zosuquidar + Linsitinib; first compound 0.01 µM)	relative viability (Zosuquidar + Linsitinib; first compound 0.03162 µM)	relative viability (Zosuquidar + Linsitinib; first compound 0.1 µM)	relative viability (Zosuquidar + Linsitinib; first compound 0.3162 µM)	relative viability (Zosuquidar + Linsitinib; first compound 1 µM)	relative viability (Zosuquidar + Tozasertib; first compound 0.01 µM)	relative viability (Zosuquidar + Tozasertib; first compound 0.03162 µM)	relative viability (Zosuquidar + Tozasertib; first compound 0.1 µM)	relative viability (Zosuquidar + Tozasertib; first compound 0.3162 µM)	relative viability (Zosuquidar + Tozasertib; first compound 1 µM)
NCI-H1975	0.332	0.333	0.328	0.29	0.352	0.673	0.79	0.687	0.676	0.669	0.928	0.905	1.07	1.01	1.02	0.74	0.775	1.01	0.803	0.787
NCI-H1993	0.516	0.489	0.429	0.507	0.476	0.552	0.511	0.544	0.569	0.597	0.707	0.783	0.698	0.695	0.706	0.564	0.5	0.578	0.595	0.541
NCI-H2009	0.297	0.373	0.332	0.305	0.274	0.568	0.737	0.591	0.637	0.452	1.22	1.25	1.15	1.16	1.2	0.538	0.518	0.574	0.46	0.436
NCI-H2023	0.469	0.608	0.592	0.444	0.201	0.394	0.387	0.346	0.345	0.278	0.656	0.815	0.605	0.631	0.776	0.335	0.426	0.407	0.398	0.314
NCI-H2085	0.614	0.516	0.491	0.409	0.514	0.685	0.898		0.677	0.799	0.867	0.982	0.919	0.901	0.995	0.852	0.886	0.778	0.835	0.856
NCI-H2087	0.29	0.188	0.173	0.196	0.191	0.695	0.544	0.501	0.574	0.652	0.916	1.03	1.01	0.987	0.89	0.266		0.27	0.228	0.218
NCI-H2126	0.594	0.598	0.52	0.577	0.459	0.715	0.778	0.675	0.678	0.701	0.71	0.707	0.543	0.755	0.719	0.815	0.861		0.918	0.796
NCI-H2228	0.645	0.612	0.41	0.461	0.742	0.658	0.684	0.549	0.416	0.722	0.659	0.922	0.552	0.515	0.685	0.213	0.272	0.252	0.208	0.272
